Common to all, as to format: biochemical
Assay [1] deals with T1, GST-tagged recombinant full-length human Pim-2 (Homo sapiens, UniProt Q9P1W9).
T1 construct: GST-tagged recombinant full-length human Pim-2; GST
Put plainly: PIM-2 Assay (as Example A). The conditions noted are these: averaged IC50; 4 μM ATP, 1.0 μM PIM2tide, 1.5 nM Pim-2. The gist of the method: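 Radiometric filter-binding assay: GST-tagged full-length human Pim-2 (1.5 nM) phosphorylates 1.0 μM PIM2tide with 4 μM [γ-33P]ATP for 60 min at 22 °C in pH 7.4 MOPS buffer, 2% DMSO. 10-point 3-fold dilutions from 10 μM top dose; IC50 from 4-parameter fit of percent of control.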

The target of another assay is PIM-1 (Homo sapiens, UniProt P11309). Kind of assay: Enzyme PIM-1 Assay ([33P]ATP incorporation into PIM2tide, filter plate). The conditions noted are these: averaged IC50; 35 μM ATP, 7.5 μM PIM2tide, 0.25 nM PIM-1, 60 min at 22° C. In short, it runs like this:
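Radiometric assay: 0.25 nM PIM-1 phosphorylates 7.5 μM PIM2tide with 35 μM [γ-33P]ATP in 20 mM MOPS pH 7.4, 10 mM MgCl2, 1 mM DTT, 0.005% Tween-20, 60 min at 22 °C. Product captured on P81 filters, scintillation counted; 10-point 3-fold curve from 10 μM top, 2% DMSO, IC50 by 4-parameter logistic fit of POC.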

In a further assay the target is recombinant rat PIM-3 (Rattus norvegicus, UniProt O70444). Put plainly: PIM-3 Assay (as Example A). The conditions noted are these: averaged IC50; 30 μM ATP, 3.75 μM PIM2tide, 0.5 nM PIM-3. In short, it runs like this:
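Recombinant rat PIM-3 (0.5 nM) with 3.75 μM PIM2tide and 30 μM [γ-33P]ATP in MOPS pH 7.4 buffer, 60 min at 22 °C; labelled peptide captured on phosphocellulose filters and counted by scintillation. 10-point curve (top dose 10 μM, 2% DMSO); IC50 from 4-parameter fit of percent of control.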

SMILES strings stand for the structures. Counter-ions that a name gives are not always drawn.

T1 sequence (Q9P1W9 whole entry): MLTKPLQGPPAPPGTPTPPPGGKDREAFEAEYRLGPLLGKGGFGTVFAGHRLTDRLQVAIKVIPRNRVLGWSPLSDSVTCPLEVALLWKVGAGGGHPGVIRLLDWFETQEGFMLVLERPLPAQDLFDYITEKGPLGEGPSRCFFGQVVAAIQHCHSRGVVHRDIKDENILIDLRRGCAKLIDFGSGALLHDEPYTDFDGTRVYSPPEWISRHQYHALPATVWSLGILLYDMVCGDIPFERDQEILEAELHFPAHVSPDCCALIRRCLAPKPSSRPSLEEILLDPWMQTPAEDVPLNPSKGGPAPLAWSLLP
Chain of PIM-1 (P11309 whole entry, species assumed): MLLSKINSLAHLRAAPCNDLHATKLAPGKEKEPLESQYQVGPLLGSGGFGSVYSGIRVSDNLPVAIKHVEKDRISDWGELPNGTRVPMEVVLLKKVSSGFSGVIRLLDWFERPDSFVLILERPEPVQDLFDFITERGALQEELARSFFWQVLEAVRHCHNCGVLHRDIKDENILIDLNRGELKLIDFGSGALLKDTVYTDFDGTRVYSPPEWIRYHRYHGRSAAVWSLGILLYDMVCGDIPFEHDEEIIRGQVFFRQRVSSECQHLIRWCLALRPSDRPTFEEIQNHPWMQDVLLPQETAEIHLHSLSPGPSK

`CC(C)(O)COc1cc2nc(-c3nnc4ccc([C@H](N5CC[C@](C)(N)C5)C(F)(F)F)cn34)ccc2cc1F` [Example 301, 1-(2-(6-((S)-1-((S)-3-amino-3-methylpyrrolidin-1-yl)-2,2,2-trifluoroethyl)-[1,2,4]triazolo[4,3-a]pyridin-3-yl)-6-fluoroquinolin-7-yloxy)-2-methylpropan-2-ol dihydrochloride]: the IC50 stood at 14 nM in assay [1], 0.2 nM against PIM-1 and 0.2 nM on recombinant rat PIM-3.

On to `CC(C)(O)COc1cc2nc(-c3nnc4ccc([C@@H](N5CC[C@H](N)C5)C(F)(F)F)cn34)ccc2cc1F` [Example 302, 1-(2-(6-((R)-1-((S)-3-aminopyrrolidin-1-yl)-2,2,2-trifluoroethyl)-[1,2,4]triazolo[4,3-a]pyridin-3-yl)-6-fluoroquinolin-7-yloxy)-2-methylpropan-2-ol dihydrochloride], for which the 50% inhibitory concentration (IC50) is 69 nM in assay [1], 0.22 nM at PIM-1 and 0.3 nM on recombinant rat PIM-3.

In the case of `COC[C@@H](C)Oc1cccc2ccc(-c3nnc4ccc([C@@H](N5CC[C@H](N(C)C)C5)C(F)(F)F)cn34)nc12` [Example 303, (S)—N,N-dimethyl-1-((R)-2,2,2-trifluoro-1-(3-(8-((R)-1-methoxypropan-2-yloxy)quinolin-2-yl)-[1,2,4]triazolo[4,3-a]pyridin-6-yl)ethyl)pyrrolidin-3-amine dihydrochloride], the IC50 in assay [1] stood at 242 nM; against PIM-1 it was 1.33 nM; on recombinant rat PIM-3, 5.85 nM.

With `CO[C@@H](C)COc1ccc2ccc(-c3nnc4ccc([C@H](N5CC[C@](C)(N)C5)C(F)(F)F)cn34)nc2c1` [Example 304, (S)-3-methyl-1-((S)-2,2,2-trifluoro-1-(3-(7-((S)-2-methoxypropoxy)quinolin-2-yl)-[1,2,4]triazolo[4,3-a]pyridin-6-yl)ethyl)pyrrolidin-3-amine], the concentration for half-maximal inhibition (IC50) came to 65.1 nM in assay [1], 0.26 nM against PIM-1 and 0.3 nM on recombinant rat PIM-3.

For `CO[C@H](C)COc1ccc2ccc(-c3nnc4ccc([C@H](N5CC[C@](C)(N)C5)C(F)(F)F)cn34)nc2c1` [Example 305, (S)-3-methyl-1-((S)-2,2,2-trifluoro-1-(3-(7-((R)-2-methoxypropoxy)quinolin-2-yl)-[1,2,4]triazolo[4,3-a]pyridin-6-yl)ethyl)pyrrolidin-3-amine], the values for the IC50 (in assay [1]; against PIM-1; on recombinant rat PIM-3) were 71 nM, 0.96 nM and 0.4 nM, respectively.

As to `CCOCCOc1ccc2ccc(-c3nnc4ccc([C@H](N5CC[C@](C)(N)C5)C(F)(F)F)cn34)nc2c1` [Example 306, (S)-1-((S)-1-(3-(7-(2-ethoxyethoxy)quinolin-2-yl)-[1,2,4]triazolo[4,3-a]pyridin-6-yl)-2,2,2-trifluoroethyl)-3-methylpyrrolidin-3-amine], the IC50 in assay [1] came to 281 nM; against PIM-1, 0.28 nM; at recombinant rat PIM-3, 0.7 nM.

For the compound `C[C@H](c1ccc2nnc(-c3ccc4cccc(C(C)(C)C)c4n3)n2c1)N1CC[C@H](N)C1` [Example 307, (S)-1-((R)-1-(3-(8-tert-butylquinolin-2-yl)-[1,2,4]triazolo[4,3-a]pyridin-6-yl)ethyl)pyrrolidin-3-amine trihydrochloride], the IC50 in assay [1] is 62.4 nM; on PIM-1, 1.64 nM; on recombinant rat PIM-3, 6.9 nM.

On to `C[C@@H](c1ccc2nnc(-c3ccc4cccc(C(C)(C)C)c4n3)n2c1)N1CC[C@H](N)C1` [Example 308, (S)-1-((S)-1-(3-(8-tert-butylquinolin-2-yl)-[1,2,4]triazolo[4,3-a]pyridin-6-yl)ethyl)pyrrolidin-3-amine trihydrochloride], for which the values for the IC50 (in assay [1]; against PIM-1; on recombinant rat PIM-3) were 29.4 nM, 0.17 nM and 0.4 nM, respectively.

Turning to `CCOc1cc2nc(-c3nnc4ccc([C@@H](C)N5CC[C@H](N)C5)cn34)ccc2cc1F` [Example 309, (S)-1-((R)-1-(3-(7-ethoxy-6-fluoroquinolin-2-yl)-[1,2,4]triazolo[4,3-a]pyridin-6-yl)ethyl)pyrrolidin-3-amine trihydrochloride], the IC50 in assay [1] is 407 nM; on PIM-1, 1.18 nM; at recombinant rat PIM-3, 3 nM.

As for `CCOc1cc2nc(-c3nnc4ccc([C@H](C)N5CC[C@H](N)C5)cn34)ccc2cc1F` [Example 310, (S)-1-((S)-1-(3-(7-ethoxy-6-fluoroquinolin-2-yl)-[1,2,4]triazolo[4,3-a]pyridin-6-yl)ethyl)pyrrolidin-3-amine trihydrochloride], the IC50 in assay [1] came out at 415 nM; on PIM-1, 0.46 nM; at recombinant rat PIM-3, 1.1 nM.

Regarding `COc1ccc2ccc(-c3nnc4ccc([C@H](N5CC[C@](C)(N)C5)C(F)(F)F)cn34)nc2c1` [Example 312, (S)-3-methyl-1-((S)-2,2,2-trifluoro-1-(3-(7-methoxyquinolin-2-yl)-[1,2,4]triazolo[4,3-a]pyridin-6-yl)ethyl)pyrrolidin-3-amine], the IC50 in assay [1] worked out at 170 nM; at PIM-1, 0.24 nM; on recombinant rat PIM-3, 0.8 nM.

With `CC(C)Oc1ccc2ccc(-c3nnc4ccc([C@H](N5CC[C@](C)(N)C5)C(F)(F)F)cn34)nc2c1` [Example 314, (S)-3-methyl-1-((S)-2,2,2-trifluoro-1-(3-(7-isopropoxyquinolin-2-yl)-[1,2,4]triazolo[4,3-a]pyridin-6-yl)ethyl)pyrrolidin-3-amine], the IC50 in assay [1] came out at 18.4 nM; on PIM-1 it was 0.22 nM; at recombinant rat PIM-3, 0.4 nM.

For `COC[C@@H](C)Oc1ccc2ccc(-c3nnc4ccc([C@H](N5CC[C@](C)(N)C5)C(F)(F)F)cn34)nc2c1` [Example 315, (S)-3-methyl-1-((S)-2,2,2-trifluoro-1-(3-(7-(((R)-1-methoxypropan-2-yl)oxy)quinolin-2-yl)-[1,2,4]triazolo[4,3-a]pyridin-6-yl)ethyl)pyrrolidin-3-amine], the IC50 worked out at 25.7 nM in assay [1], 0.19 nM against PIM-1 and 0.4 nM on recombinant rat PIM-3.

Regarding `N[C@H]1CCN([C@H](c2ccc3nnc(-c4ccc5ccc(C6COC6)cc5n4)n3c2)C(F)(F)F)C1` [Example 316, (S)-1-((R)-2,2,2-trifluoro-1-(3-(7-(oxetan-3-yl)quinolin-2-yl)-[1,2,4]triazolo[4,3-a]pyridin-6-yl)ethyl)pyrrolidin-3-amine], the IC50 amounted to 764 nM in assay [1], 0.48 nM on PIM-1 and 2.8 nM on recombinant rat PIM-3.

`C[C@]1(N)CCN([C@@H](c2ccc3nnc(-c4ccc5ccc(CCO)cc5n4)n3c2)C(F)(F)F)C1` [Example 317, 2-(2-(6-((S)-1-((S)-3-amino-3-methylpyrrolidin-1-yl)-2,2,2-trifluoroethyl)-[1,2,4]triazolo[4,3-a]pyridin-3-yl)quinolin-7-yl)ethanol]: the IC50 in assay [1] worked out at 194 nM; at PIM-1 it was 0.34 nM; at recombinant rat PIM-3 it was 0.4 nM.

Regarding `COCCOc1ccc2ccc(-c3nnc4ccc([C@@H](N5C[C@@H](N)[C@H](OC)C5)C(F)(F)F)cn34)nc2c1` [Example 318, (3R,4R)-4-methoxy-1-((R)-2,2,2-trifluoro-1-(3-(7-(2-methoxyethoxy)quinolin-2-yl)-[1,2,4]triazolo[4,3-a]pyridin-6-yl)ethyl)pyrrolidin-3-amine], the half-maximal inhibitory concentration (IC50) in assay [1] was 218 nM; against PIM-1, 0.94 nM; at recombinant rat PIM-3, 0.8 nM.

As for `Cc1oc(=O)oc1COC(=O)N[C@H]1CCN([C@H](c2ccc3nnc(-c4ccc5cc(F)c(OCCO)cc5n4)n3c2)C(F)(F)F)C1` [Example 321, (5-methyl-2-oxo-1,3-dioxol-4-yl)methyl ((S)-1-((R)-2,2,2-trifluoro-1-(3-(6-fluoro-7-(2-hydroxyethoxy)quinolin-2-yl)-[1,2,4]triazolo[4,3-a]pyridin-6-yl)ethyl)pyrrolidin-3-yl)carbamate], the results for the IC50 (in assay [1]; at PIM-1; on recombinant rat PIM-3) were 1820 nM, 1.68 nM and 6.1 nM, respectively.

`CO[C@@H](C)COc1cc2nc(-c3nnc4ccc([C@H](N5CC[C@](C)(N)C5)C(F)(F)F)cn34)ccc2cc1F` [Example 322, (S)-3-methyl-1-((S)-2,2,2-trifluoro-1-(3-(6-fluoro-7-((S)-2-methoxypropoxy)quinolin-2-yl)-[1,2,4]triazolo[4,3-a]pyridin-6-yl)ethyl)pyrrolidin-3-amine di-hydrochloride]: the IC50 in assay [1] was determined as 22.7 nM; on PIM-1 it was 0.08 nM; on recombinant rat PIM-3, 0.1 nM.

Regarding `CO[C@@H](C)COc1cc2nc(-c3nnc4ccc([C@@H](N5CC[C@H](N)C5)C(F)(F)F)cn34)ccc2cc1F` [Example 323, (S)-1-((R)-2,2,2-trifluoro-1-(3-(6-fluoro-7-((S)-2-methoxypropoxy)quinolin-2-yl)-[1,2,4]triazolo[4,3-a]pyridin-6-yl)ethyl)pyrrolidin-3-amine di-hydrochloride], the IC50 in assay [1] worked out at 145 nM; on PIM-1, 0.14 nM; on recombinant rat PIM-3, 0.2 nM.

Values taken from patent US8889704B2 (Array BioPharma Inc., priority 2011, dated 2014).
